# Measured values reported in patent US8492589B2, “Alkynyl phenyl derivative compounds for treating ophthalmic diseases and disorders” (Acucela Inc., priority 2007, dated 2013).
# Target: T1, visual cycle isomerase (Bovine RPE microsome membranes) (Bos taurus, UniProt Q28175)
# T1 construct: Bovine Retinal Pigment Epithelium (RPE) microsome membranes were the source of a visual cycle isomerase; from tissue; host or cells: bovine retinal pigment epithelium microsome membranes
# T1 sequence (Q28175 2-533 limits assumed): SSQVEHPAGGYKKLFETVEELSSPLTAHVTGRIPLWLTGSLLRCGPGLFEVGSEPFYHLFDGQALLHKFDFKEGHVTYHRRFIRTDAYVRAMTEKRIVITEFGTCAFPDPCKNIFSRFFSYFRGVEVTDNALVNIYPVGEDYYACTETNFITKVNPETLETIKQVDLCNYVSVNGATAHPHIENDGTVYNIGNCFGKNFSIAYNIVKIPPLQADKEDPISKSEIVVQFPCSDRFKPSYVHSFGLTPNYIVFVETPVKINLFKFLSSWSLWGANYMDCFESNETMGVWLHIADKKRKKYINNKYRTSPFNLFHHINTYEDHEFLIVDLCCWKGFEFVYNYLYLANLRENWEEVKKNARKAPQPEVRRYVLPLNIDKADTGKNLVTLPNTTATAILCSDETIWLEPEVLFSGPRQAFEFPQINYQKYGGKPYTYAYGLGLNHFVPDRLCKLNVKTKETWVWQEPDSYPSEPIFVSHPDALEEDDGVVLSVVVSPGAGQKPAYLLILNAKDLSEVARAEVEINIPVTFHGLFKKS
# Assay: In vitro isomerase inhibition assay, bovine RPE microsome membranes
# Assay type: biochemical
# Conditions: bovine RPE microsomes; 11-cis retinol formation
# Experimental: The capability of alkynyl phenyl-linked amine derivative compounds to inhibit the activity of a visual cycle isomerase was determined.
# Bovine Retinal Pigment Epithelium (RPE) microsome membranes were the source of a visual cycle isomerase.
# Crude RPE microsome extracts were thawed in a 37° C. water bath, and then immediately placed on ice. 50 ml crude RPE microsomes were placed into a 50 ml Teflon-glass homogenizer (Fisher Scientific, catalog no. 0841416M) on ice, powered by a hand-held DeWalt drill, and homogenized ten times up and down on ice under maximum speed. This process was repeated until the crude RPE microsome solution was homogenized. The homogenate was then subjected to centrifugation (50.2 Ti rotor (Beckman, Fullerton, Calif.), 13,000 RPM; 15360 Rcf) for 15 minutes at 4° C. The supernatant was collected and subjected to centrifugation at 42,000 RPM (160,000 Rcf; 50.2 Ti rotor) for 1 hour at 4° C. The supernatant was removed, and the pellets were suspended in 12 ml (final volume) cold 10 mM MOPS buffer, pH 7.0. The resuspended RPE membranes in 5 ml aliquots were homogenized in a glass-to-glass homogenizer (Fisher Scientific, catalog no. K885500-0021) to high homogeneity. Protein concentration was quantified using the BCA protein assay according to the manufacturer's protocol (Pierce, Rockford, Ill.). The homogenized RPE preparations were stored at −80° C.
# Recombinant human apo cellular retinaldehyde-binding protein (CRALBP) was cloned and expressed according to standard methods in the molecular biology art (see Crabb et al., Protein Science 7:746-57 (1998); Crabb et al., J. Biol. Chem. 263:18688-92 (1988)). Briefly, total RNA was prepared from confluent ARPE19 cells (American Type Culture Collection, Manassas, Va.), cDNA was synthesized using an oligo(dT)12-18 primer, and then DNA encoding CRALBP was amplified by two sequential polymerase chain reactions (see Crabb et al., J. Biol. Chem. 263:18688-92 (1988); Intres, et al., J. Biol. Chem. 269:25411-18 (1994); GenBank Accession No. L34219.1). The PCR product was sub-cloned into pTrcHis2-TOPO TA vector according to the manufacturer's protocol (Invitrogen Inc., Carlsbad, Calif.; catalog no. K4400-01), and then the sequence was confirmed according to standard nucleotide sequencing techniques. Recombinant 6×His-tagged human CRALBP was expressed in One Shot TOP 10 chemically competent E. coli cells (Invitrogen), and the recombinant polypeptide was isolated from E. coli cell lysates by nickel affinity chromatography using nickel (Ni) Sepharose XK16-20 columns for HPLC (Amersham Bioscience, Pittsburgh, Pa.; catalog no. 17-5268-02). The purified 6×His-tagged human CRALBP was dialyzed against 10 mM bis-tris-Propane (BTP) and analyzed by SDS-PAGE. The molecular weight of the recombinant human CRALBP was approximately 39 kDal.
# Alkkynyl phenyl-linked amine derivative compounds and control compounds were reconstituted in ethanol to 0.1 M. Ten-fold serial dilutions (10^−2, 10^−3, 10^−4, 10^−5, 10^−6 M) in ethanol of each compound were prepared for analysis in the isomerase assay.
# The isomerase assay was performed in 10 mM bis-tris-propane (BTP) buffer, pH 7.5, 0.5% BSA (diluted in BTP buffer), 1 mM sodium pyrophosphate, 20 μM all-trans retinol (in ethanol), and 6 μM apo-CRALBP. The test compounds (2 μl) (final […] dilution of serial dilution stocks) were added to the above reaction mixture to which RPE microsomes were added. The same volume of ethanol was added to the control reaction (absence of test compound). Bovine RPE microsomes (9 μl) (see above) were then added, and the mixtures transferred to 37° C. to initiate the reaction (total volume=150 μl). The reactions were stopped after 30 minutes by adding methanol (300 μl). Heptane was added (300 μl) and mixed into the reaction mixture by pipetting. Retinoid was extracted by agitating the reaction mixtures, followed by centrifugation in a microcentrifuge. […]
row,Compound,IC50 [µM]
1,"NCCCc1cccc(C#CC2(O)CCCCCC2)c1 [Example 58, 1-((3-(3-Aminopropyl)phenyl)ethynyl)cycloheptanol]",≤ 1
2,"NCCC(O)c1cccc(C#CCc2ccccc2)c1 (stereo not shown) [Example 49, 3-Amino-1-(3-(3-phenylprop-1-ynyl)phenyl)propan-1-ol]",≤ 1
3,"NCCCc1cccc(C#CC2CCCCC2)c1 [Example 41, 3-(3-(Cyclohexylethynyl)phenyl)propan-1-amine]",≤ 1
4,"CC(C)(O)C#Cc1cccc(OCCN)c1 [Example 30, 4-(3-(2-Aminoethoxy)phenyl)-2-methylbut-3-yn-2-ol]",≤ 1
5,"CCCC(C)(O)C#Cc1cccc(CCCN)c1 (stereo not shown) [Example 5, 1-(3-(3-Aminopropyl)phenyl)-3-methylhex-1-yn-3-ol]",≤ 1
6,"NCCCc1cccc(C#CCC2CCCC2)c1 [Example 39, 3-(3-(3-Cyclopentylprop-1-ynyl)phenyl)propan-1-amine]",≤ 1
7,"Cc1cccc(C)c1C#Cc1cccc(CCCN)c1 [Example 17, 3-(3-((2,6-dimethylphenyl)ethynyl)phenyl)propan-1-amine]",≤ 10
8,"CCCCC[C@H](O)C#Cc1cccc(CCCN)c1 [Example 14, (S)-1-(3-(3-Aminopropyl)phenyl)oct-1-yn-3-ol]",≤ 10
9,"CC(C)(C)C#Cc1cccc(CCCN)c1 [Example 40, 3-(3-(3,3-Dimethylbut-1-Ynyl)Phenyl)Propan-1-Amine]",≤ 10
10,"NCCCc1cccc(C#Cc2cccnc2)c1 [Example 64, 3-(3-(Pyridin-3-ylethynyl)phenyl)propan-1-amine]",≤ 10
11,"COCCCCC#Cc1cccc(CCCN)c1 [Example 67, 3-(3-(6-Methoxyhex-1-ynyl)phenyl)propan-1-amine]",≤ 1
12,"NCCCc1cccc(C#Cc2cccc(-c3ccccc3)c2)c1 [Example 46, 3-(3-(Biphenyl-3-ylethynyl)phenyl)propan-1-amine]",≤ 100
13,"NCCCc1cccc(C#Cc2cccs2)c1 [Example 65, 3-(3-(Thiophen-2-ylethynyl)phenyl)propan-1-amine]",≤ 10
14,"CCCC(O)(C#Cc1cccc(CC(C)(C)CN)c1)CCC [Example 20, 4-((3-(3-Amino-2,2-dimethylpropyl)phenyl)ethynyl)heptan-4-ol]",≤ 100
15,"CCCC#Cc1cccc(CCCN)c1 [Example 43, 3-(3-(Pent-1-ynyl)phenyl)propan-1-amine]",≤ 1
16,"CC(C)CC(O)(C#Cc1cccc(CCCN)c1)CC(C)C [Example 33, 4-((3-(3-Aminopropyl)phenyl)ethynyl)-2,6-dimethylheptan-4-ol]",≤ 10
17,"CCCCC#Cc1cccc(CCCN)c1 [Example 44, 3-(3-(Hex-1-ynyl)phenyl)propan-1-amine]",≤ 1
18,"NCCC(O)c1cccc(C#CCC2CCCC2)c1 (stereo not shown) [Example 48, 3-Amino-1-(3-(3-cyclopentylprop-1-ynyl)phenyl)propan-1-ol]",≤ 1
19,"CCCCC(O)(C#Cc1cccc(OCCN)c1)CCCC [Example 29, 5-((3-(2-Aminoethoxy)phenyl)ethynyl)nonan-5-ol]",≤ 1
20,"CC(O)(C#Cc1cccc(CCCN)c1)c1ccccc1 (stereo not shown) [Example 22, 4-(3-(3-Aminopropyl)Phenyl)-2-Phenylbut-3-Yn-2-ol]",≤ 1
21,"NCCCc1cccc(C#Cc2ccsc2)c1 [Example 66, 3-(3-(Thiophen-3-ylethynyl)phenyl)propan-1-amine]",≤ 10
22,"NCCOc1cccc(C#CC2(O)CCOCC2)c1 [Example 56, 4-((3-(2-Aminoethoxy)phenyl)ethynyl)tetrahydro-2H-pyran-4-ol]",≤ 10
23,"NCCCc1cccc(C#C[C@H](O)c2ccccc2)c1 [Example 16, (R)-3-(3-(3-Aminopropyl)phenyl)-1-phenylprop-2-ynol]",≤ 1

# Other lines, results leading:
row,IC50 [µM],Compound
1,≤ 1,"NCCOc1cccc(C#CCCc2ccccc2)c1 [Example 86, 2-(3-(4-Phenylbut-1-ynyl)phenoxy)ethanamine]"
2,≤ 1,"COCCCC#Cc1cccc(CCCN)c1 [Example 70, 3-(3-(5-Methoxypent-1-ynyl)phenyl)propan-1-amine]"
3,≤ 100,"Cc1ccc(C#Cc2cccc(CCCN)c2)cc1 [Example 84, 3-(3-(p-Tolylethynyl)phenyl)propan-1-amine]"
4,≤ 10,"Cc1ccccc1C#Cc1cccc(CCCN)c1 [Example 83, 3-(3-(o-Tolylethynyl)phenyl)propan-1-amine]"
5,≤ 1,"COc1ccccc1C#Cc1cccc(OCCN)c1 [Example 91, 2-(3-((2-Methoxyphenyl)Ethynyl)Phenoxy)Ethanamine]"
6,≤ 100,"CSc1ccc(C#Cc2cccc(CCCN)c2)cc1 [Example 94, 3-(3-((4-(Methylthio)phenyl)ethynyl)phenyl)propan-1-amine]"
7,≤ 1,"CC(C)CC#Cc1cccc(OCCN)c1 [Example 73, 2-(3-(4-Methylpent-1-ynyl)phenoxy)ethanamine]"
8,≤ 10,"NCCOc1cccc(C#Cc2ccccn2)c1 [Example 98, 2-(3-(Pyridin-2-ylethynyl)phenoxy)ethanamine]"
9,≤ 10,"NCCCc1cccc(C#Cc2ccccc2O)c1 [Example 89, 2-((3-(3-Aminopropyl)phenyl)ethynyl)phenol]"
10,≤ 1,"NCCOc1cccc(C#CCC2CCCC2)c1 [Example 85, 2-(3-(3-Cyclopentylprop-1-ynyl)phenoxy)ethanamine]"
11,≤ 10,"NCCOc1cccc(C#Cc2ccncc2)c1 [Example 97, 2-(3-(Pyridin-4-ylethynyl)phenoxy)ethanamine]"
12,≤ 100,"NCCCc1cccc(C#Cc2cccc(C(F)(F)F)c2)c1 [Example 92, 3-(3-((3-(Trifluoromethyl)Phenyl)Ethynyl)Phenyl)Propan-1-Amine]"
13,≤ 1,"CCCCCC#Cc1cccc(OCCN)c1 [Example 77, 2-(3-(hept-1-ynyl)phenoxy)ethanamine]"
14,≤ 10,"N#Cc1cccc(C#Cc2cccc(CCCN)c2)c1 [Example 90, 3-((3-(3-Aminopropyl)phenyl)ethynyl)benzonitrile]"
15,≤ 1,"NCCOc1cccc(C#CCc2ccccc2)c1 [Example 75, 2-(3-(3-phenylprop-1-ynyl)phenoxy)ethanamine]"

# Test system: retinoid nuclear receptors (RAR and RXR)
# Assay: Retinoid nuclear receptor activity, RAR and RXR together
# Assay type: cell-based
# Conditions: reference agonists
row,"activation of the RXRα, RARα, RARβ and RARγ receptors",Compound
1,activated,"C/C(=C\c1ccc(C(=O)O)cc1)c1ccc2c(c1)C(C)(C)CCC2(C)C [TTNPB, E-4-[2-(5,6,7,8-tetrahydro-5,5,8,8-tetramethyl-2-naphthylenyl)-1-propenyl]benzoic acid]"
2,activated,"CC1=C(/C=C/C(C)=C/C=C/C(C)=C/C(=O)O)C(C)(C)CCC1 [at-RA, all-trans-retinoic acid]"
